Data from PMC9080233, “Synthesis and biological evaluation of novel quinolone derivatives dual targeting histone deacetylase and tubulin polymerization as antiproliferative agents” (RSC Advances, 2018).
Read-outs that look alike come from different tables or passages of the source.

Tests used:
human recombinant HDAC1 = target: T1, human recombinant HDAC1 (Homo sapiens, UniProt Q13547); assay: HDAC activity assay (fluorogenic HDAC assay kit), HDAC1; format: biochemical; details: for IC50: human recombinant HDAC1, 37 °C, 30 min
T1 construct: purchased BPS Bioscience, CA
Protocol: (§1) HDAC activity was measured using fluorogenic HDACs assay kit (BPS Bioscience, CA) according to the manufacturer's protocol. […] Fluorescence values were measured at an excitation of 350 nm and an emission of 440 nm using SpectraMax M2 microplate reader. IC50 values were calculated using Origin software. IC50 values were determined using nonlinear regression analysis.

human recombinant HDAC2 = target: T2, human recombinant HDAC2 (Homo sapiens, UniProt Q92769); assay: HDAC activity assay (fluorogenic HDAC assay kit), HDAC2; format: biochemical; details: for IC50: human recombinant HDAC2, 37 °C, 30 min
T2 construct: purchased BPS Bioscience, CA
Protocol: as §1

human recombinant HDAC6 = target: T3, human recombinant HDAC6 (Homo sapiens, UniProt Q9UBN7); assay: HDAC activity assay (fluorogenic HDAC assay kit), HDAC6; format: biochemical; details: for IC50: human recombinant HDAC6, 37 °C, 30 min; for Selectivity index HDAC6/1: ratio of IC50 HDAC1 to IC50 HDAC6; for Selectivity index HDAC6/2: ratio of IC50 HDAC2 to IC50 HDAC6;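 on all read-outs here: underlying HDAC activity read as fluorescence, excitation 350 nm and emission 440 nm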
T3 construct: purchased BPS Bioscience, CA
T3 sequence (Q9UBN7 1-1215): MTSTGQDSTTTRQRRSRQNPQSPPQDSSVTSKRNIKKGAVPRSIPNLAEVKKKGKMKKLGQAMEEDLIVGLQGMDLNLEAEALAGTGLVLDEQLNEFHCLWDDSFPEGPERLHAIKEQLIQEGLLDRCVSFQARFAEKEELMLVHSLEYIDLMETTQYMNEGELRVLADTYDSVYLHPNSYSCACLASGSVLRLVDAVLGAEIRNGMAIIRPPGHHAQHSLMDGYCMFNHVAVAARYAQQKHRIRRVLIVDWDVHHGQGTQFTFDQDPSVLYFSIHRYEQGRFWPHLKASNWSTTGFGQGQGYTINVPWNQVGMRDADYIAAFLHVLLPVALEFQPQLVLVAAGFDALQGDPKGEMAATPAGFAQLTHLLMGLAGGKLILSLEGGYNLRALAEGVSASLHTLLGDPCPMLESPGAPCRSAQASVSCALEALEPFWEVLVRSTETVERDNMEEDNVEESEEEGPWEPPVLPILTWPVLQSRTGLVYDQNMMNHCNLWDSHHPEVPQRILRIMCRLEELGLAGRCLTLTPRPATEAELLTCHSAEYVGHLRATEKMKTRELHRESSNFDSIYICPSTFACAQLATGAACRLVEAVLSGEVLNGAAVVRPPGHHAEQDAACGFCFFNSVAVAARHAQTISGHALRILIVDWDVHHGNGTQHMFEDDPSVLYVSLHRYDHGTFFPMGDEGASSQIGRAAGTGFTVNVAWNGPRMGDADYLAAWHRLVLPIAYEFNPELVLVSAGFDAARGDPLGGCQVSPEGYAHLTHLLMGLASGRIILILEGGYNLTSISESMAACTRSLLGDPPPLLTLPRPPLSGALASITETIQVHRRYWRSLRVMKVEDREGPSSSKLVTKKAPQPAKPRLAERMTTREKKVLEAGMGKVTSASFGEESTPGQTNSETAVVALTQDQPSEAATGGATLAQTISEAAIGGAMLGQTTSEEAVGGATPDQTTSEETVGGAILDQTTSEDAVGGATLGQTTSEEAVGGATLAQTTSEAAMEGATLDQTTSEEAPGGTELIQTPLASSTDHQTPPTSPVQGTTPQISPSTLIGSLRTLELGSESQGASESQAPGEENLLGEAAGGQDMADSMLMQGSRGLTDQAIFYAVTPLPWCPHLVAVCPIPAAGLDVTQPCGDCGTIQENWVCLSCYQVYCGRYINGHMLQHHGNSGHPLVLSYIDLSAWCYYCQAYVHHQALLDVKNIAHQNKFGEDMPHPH
Protocol: as §1

[1] = tested on: human lung adenocarcinoma cells A549; assay: Antiproliferative activity, CCK-8 assay, A549; format: cell-based; details: CCK-8, 72 hours, mean ± SD
Protocol: (§2) Antitumor activities in vitro of synthetic compounds were measured using CCK-8 Assay Kit (BPS Bioscience, CA) according to the manufacturer's protocol. […] Control cells were treated with serum free medium. Then CCK-8 solution was added to each well to determine cell viability. The IC50 values were calculated according to the dose-dependent curves (Origin software). IC50 values were determined using nonlinear regression analysis.

liver cancer cells HepG2 = assay: Antiproliferative activity, CCK-8 assay, HepG2; format: cell-based; details: Homo sapiens, CCK-8, 72 hours, mean ± SD
Protocol: as §2

[2] = tested on: breast cancer cells MCF-7; assay: Antiproliferative activity, CCK-8 assay, MCF-7; format: cell-based; details: Homo sapiens, MCF7; CCK-8, 72 hours; mean ± SD
Protocol: as §2

[3] = tested on: prostate cancer cells PC-3; assay: Antiproliferative activity, CCK-8 assay, PC-3; format: cell-based; details: Homo sapiens; CCK-8, 72 hours; mean ± SD
Protocol: as §2

[4] = tested on: human cervical carcinoma cells HeLa; assay: Antiproliferative activity, CCK-8 assay, HeLa; format: cell-based; details: read-out: IC50 HeLa
Protocol: Antitumor activities in vitro of synthetic compounds were measured using CCK-8 Assay Kit (BPS Bioscience, CA) according to the manufacturer's protocol. Cells were plated into 96-well plates with appropriate test compounds for 72 hours. Control cells were treated with serum free medium. Then CCK-8 solution was added to each well to determine cell viability. The IC50 values were calculated according to the dose-dependent curves (Origin software). IC50 values were determined using nonlinear regression analysis.

healthy MCF-10A cells = assay: Toxicity to healthy cells, CCK-8 assay, MCF-10A; format: cell-based; details: for IC50: Homo sapiens, MCF-10A, healthy cells, CCK-8, 72 hours, >100 = not determinable up to highest concentrations tested
Protocol: as §2

tubulin = assay: Tubulin polymerization assay; format: biochemical; details: in words
Protocol: Tubulin polymerization assay was performed using a fluorescence-based tubulin polymerization assay Kit (BK011, Cytoskeleton, Inc.) according to the manufacturer's protocol. […] After addition of polymerization buffer and 0.4 mM GTP, the reaction mixtures were transferred to 0 °C cuvettes in a recording spectrophotometer. […] Data from each well was normalized relative to initial readings,[43] and plots of ΔODmax (final−initial values) against compound concentration, expressed relative to vehicle control (DMSO only), were used to calculate IC50 values.[44] IC50 values were determined using nonlinear regression analysis.

[5] = amide group of 9c replaced with ester group

T1 sequence (Q13547 whole entry): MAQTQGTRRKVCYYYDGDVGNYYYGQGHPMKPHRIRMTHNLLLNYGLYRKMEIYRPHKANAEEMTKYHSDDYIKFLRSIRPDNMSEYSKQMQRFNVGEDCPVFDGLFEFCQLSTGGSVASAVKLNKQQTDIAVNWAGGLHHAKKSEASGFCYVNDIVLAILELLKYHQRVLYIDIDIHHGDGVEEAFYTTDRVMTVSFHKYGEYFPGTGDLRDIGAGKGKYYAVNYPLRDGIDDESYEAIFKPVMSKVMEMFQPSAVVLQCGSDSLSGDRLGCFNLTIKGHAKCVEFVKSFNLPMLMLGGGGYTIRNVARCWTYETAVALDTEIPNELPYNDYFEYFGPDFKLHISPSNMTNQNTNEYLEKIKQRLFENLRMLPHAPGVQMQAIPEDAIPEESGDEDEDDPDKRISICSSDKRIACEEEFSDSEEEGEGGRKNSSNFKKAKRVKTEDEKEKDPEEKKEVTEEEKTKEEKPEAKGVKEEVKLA
T2 sequence (Q92769 whole entry): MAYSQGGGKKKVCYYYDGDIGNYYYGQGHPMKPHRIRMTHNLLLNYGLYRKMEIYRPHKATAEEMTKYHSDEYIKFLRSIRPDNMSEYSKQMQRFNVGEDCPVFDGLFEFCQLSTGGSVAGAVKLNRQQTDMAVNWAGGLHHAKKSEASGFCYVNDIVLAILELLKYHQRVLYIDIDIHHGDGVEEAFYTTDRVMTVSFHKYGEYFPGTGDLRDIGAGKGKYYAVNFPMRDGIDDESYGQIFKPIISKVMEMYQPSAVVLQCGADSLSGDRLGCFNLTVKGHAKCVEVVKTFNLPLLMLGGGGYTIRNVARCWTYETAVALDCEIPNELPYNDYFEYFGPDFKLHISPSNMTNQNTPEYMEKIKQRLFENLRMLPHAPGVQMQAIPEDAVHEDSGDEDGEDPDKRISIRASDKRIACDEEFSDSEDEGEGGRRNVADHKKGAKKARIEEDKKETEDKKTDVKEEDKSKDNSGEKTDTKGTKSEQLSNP
tubulin, sequence (P02550 whole entry): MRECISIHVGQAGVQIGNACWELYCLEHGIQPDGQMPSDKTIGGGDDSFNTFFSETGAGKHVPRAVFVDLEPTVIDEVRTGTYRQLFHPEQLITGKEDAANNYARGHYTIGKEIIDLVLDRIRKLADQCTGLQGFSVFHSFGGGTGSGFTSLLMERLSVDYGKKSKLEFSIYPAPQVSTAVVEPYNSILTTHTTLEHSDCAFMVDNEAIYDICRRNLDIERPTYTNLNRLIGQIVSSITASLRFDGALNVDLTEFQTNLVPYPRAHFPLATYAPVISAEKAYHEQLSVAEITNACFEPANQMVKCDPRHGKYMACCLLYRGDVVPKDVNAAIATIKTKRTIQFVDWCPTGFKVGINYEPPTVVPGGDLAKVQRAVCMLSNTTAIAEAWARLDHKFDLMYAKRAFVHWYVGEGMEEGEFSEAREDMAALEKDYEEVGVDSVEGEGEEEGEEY
tubulin, sequence (P02554 whole entry, further chain): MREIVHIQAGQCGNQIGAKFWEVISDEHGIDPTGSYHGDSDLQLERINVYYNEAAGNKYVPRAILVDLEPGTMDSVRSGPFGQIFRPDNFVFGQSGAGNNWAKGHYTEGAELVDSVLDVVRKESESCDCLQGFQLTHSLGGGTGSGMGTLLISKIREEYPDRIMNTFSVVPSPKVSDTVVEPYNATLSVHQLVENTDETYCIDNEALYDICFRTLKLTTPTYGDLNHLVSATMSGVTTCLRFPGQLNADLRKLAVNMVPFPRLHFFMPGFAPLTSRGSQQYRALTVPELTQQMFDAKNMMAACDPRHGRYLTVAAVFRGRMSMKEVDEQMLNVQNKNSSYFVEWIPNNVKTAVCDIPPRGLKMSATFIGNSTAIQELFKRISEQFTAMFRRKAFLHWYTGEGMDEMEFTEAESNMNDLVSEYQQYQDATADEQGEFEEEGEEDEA

Row | SMILES | IC50 (human recombinant HDAC1) [µM] | IC50 (human recombinant HDAC2) [µM] | IC50 (human recombinant HDAC6) [µM] | Selectivity index HDAC6/1 (human recombinant HDAC6) | Selectivity index HDAC6/2 (human recombinant HDAC6) | IC50 [1] [µM] | IC50 (liver cancer cells HepG2) [µM] | IC50 [2] [µM] | IC50 [3] [µM] | IC50 ([4]; CCK-8, 72 hours, mean ± SD) [µM] | IC50 (healthy MCF-10A cells) [µM] | melting point [°C] | tubulin polymerization inhibition compared with reference compound (tubulin) | fold reduced potency anti-HDAC1 relative to 9c (human recombinant HDAC1; [5]) | fold reduced potency anti-HDAC2 relative to 9c (human recombinant HDAC2; [5]) | fold reduced potency anti-HDAC6 relative to 9c (human recombinant HDAC6; [5]) | IC50 ([4]; 72 h) [µM] | toxicity to healthy MCF-10A cells (healthy MCF-10A cells; in words) | toxicity to healthy VERO cells (healthy MCF-10A cells; in words, conclusions)
1 | C[C@H]1COc2c(N3CCN(C)CC3)c(F)cc3c(=O)c(C(=O)NCc4cn(CCCCCCCC(=O)NO)nn4)cn1c23 [Compound 9c, (S)-9-Fluoro-N-((1-(8-(hydroxyamino)-8-oxooctyl)-1H-1,2,3-triazol-4-yl)methyl)-3-methyl-10-(4-methylpiperazin-1-yl)-7-oxo-3,7-dihydro-2H-[1,4]oxazino[2,3,4-ij]quinoline-6-carboxamide] | 0.038 ± 0.014 | 0.076 ± 0.022 | 0.041 ± 0.025 | 0.9 | 1.9 | 4.2 ± 0.38 | 3.6 ± 0.55 | 1.1 ± 0.23 | 8.7 ± 0.62 | 3.5 ± 0.24 | > 100 | – | – | – | – | – | – | – | –
2 | C[C@H]1COc2c(N3CCN(C)CC3)c(F)cc3c(=O)c(C(=O)OCc4cn(CCCCCCC(=O)O)nn4)cn1c23 [Compound 6b, (S)-7-(4-(((9-fluoro-3-methyl-10-(4-methylpiperazin-1-yl)-7-oxo-3,7-dihydro-2H-[1,4]oxazino[2,3,4-ij]quinoline-6-carbonyl)oxy)methyl)-1H-1,2,3-triazol-1-yl)heptanoic acid] | 5.7 ± 0.71 | 6.2 ± 0.92 | 1.4 ± 0.35 | 4.1 | 4.4 | 10.7 ± 1.08 | 10.5 ± 1.17 | 8.9 ± 0.54 | 12.9 ± 1.25 | 9.7 ± 0.83 | > 100 | 183 to 185 | – | – | – | – | – | – | –
3 | C[C@H]1COc2c(N3CCN(C)CC3)c(F)cc3c(=O)c(C(=O)OCc4cn(CCCCCCCC(=O)O)nn4)cn1c23 [Compound 6c, (S)-8-(4-(((9-fluoro-3-methyl-10-(4-methylpiperazin-1-yl)-7-oxo-3,7-dihydro-2H-[1,4]oxazino[2,3,4-ij]quinoline-6-carbonyl)oxy)methyl)-1H-1,2,3-triazol-1-yl)octanoic acid] | 6.9 ± 0.83 | 7.9 ± 0.76 | 4.7 ± 0.51 | 1.5 | 1.7 | 13.6 ± 1.16 | 12.7 ± 1.09 | 10.5 ± 1.22 | 15.8 ± 1.43 | 14.6 ± 1.08 | > 100 | 196 to 199 | – | – | – | – | – | – | –
4 | C[C@H]1COc2c(N3CCN(C)CC3)c(F)cc3c(=O)c(C(=O)OCc4cn(CCCCCC(=O)NO)nn4)cn1c23 [Compound 8a, (S)-(1-(6-(hydroxyamino)-6-oxohexyl)-1H-1,2,3-triazol-4-yl)methyl-9-fluoro-3-methyl-10-(4-methylpiperazin-1-yl)-7-oxo-3,7-dihydro-2H-[1,4]oxazino[2,3,4-ij]quinoline-6-carboxylate] | 0.075 ± 0.031 | 0.134 ± 0.049 | 0.043 ± 0.053 | 1.7 | 3.1 | 8.9 ± 0.72 | 9.8 ± 0.87 | 3.5 ± 0.51 | 12.8 ± 1.42 | 7.7 ± 0.64 | > 100 | – | – | – | – | – | – | – | –
5 | C[C@H]1COc2c(N3CCN(C)CC3)c(F)cc3c(=O)c(C(=O)NCc4cn(CCCCCC(=O)NO)nn4)cn1c23 [Compound 9a, (S)-9-Fluoro-N-((1-(6-(hydroxyamino)-6-oxohexyl)-1H-1,2,3-triazol-4-yl)methyl)-3-methyl-10-(4-methylpiperazin-1-yl)-7-oxo-3,7-dihydro-2H-[1,4]oxazino[2,3,4-ij]quinoline-6-carboxamide] | 0.073 ± 0.045 | – | 0.049 ± 0.023 | 1.5 | 1.7 | 5.6 ± 0.59 | 6.6 ± 0.78 | 1.1 ± 0.26 | 9.6 ± 1.05 | 5.2 ± 0.82 | > 100 | – | equipotent to reference compound CA-4 | – | – | – | – | – | –
6 | C[C@H]1COc2c(N3CCN(C)CC3)c(F)cc3c(=O)c(C(=O)NCc4cn(CCCCCC(=O)O)nn4)cn1c23 [Compound 7a, (S)-6-(4-((9-fluoro-3-methyl-10-(4-methylpiperazin-1-yl)-7-oxo-3,7-dihydro-2H-[1,4]oxazino[2,3,4-ij]quinoline-6-carboxamido)methyl)-1H-1,2,3-triazol-1-yl)hexanoic acid] | 4.6 ± 0.52 | 7.3 ± 0.93 | 1.9 ± 0.47 | 2.4 | 3.8 | 12.8 ± 1.33 | 14.8 ± 1.27 | 9.7 ± 1.04 | 15.8 ± 1.48 | 13.5 ± 1.31 | > 100 | 179 to 182 | – | – | – | – | – | – | –
7 | C[C@H]1COc2c(N3CCN(C)CC3)c(F)cc3c(=O)c(C(=O)OCc4cn(CCCCCC(=O)O)nn4)cn1c23 [Compound 6a, (S)-6-(4-(((9-fluoro-3-methyl-10-(4-methylpiperazin-1-yl)-7-oxo-3,7-dihydro-2H-[1,4]oxazino[2,3,4-ij]quinoline-6-carbonyl)oxy)methyl)-1H-1,2,3-triazol-1-yl)hexanoic acid] | 8.2 ± 1.08 | 10.4 ± 1.87 | 2.1 ± 0.68 | 3.9 | 4.9 | 14.2 ± 1.28 | 13.4 ± 1.36 | 10.3 ± 1.12 | 16.5 ± 1.63 | 12.3 ± 1.16 | > 100 | 175 to 178 | – | – | – | – | – | – | –
8 | C[C@H]1COc2c(N3CCN(C)CC3)c(F)cc3c(=O)c(C(=O)OCc4cn(CCCCCCCC(=O)NO)nn4)cn1c23 [Compound 8c, (S)-(1-(8-(hydroxyamino)-8-oxooctyl)-1H-1,2,3-triazol-4-yl)methyl-9-fluoro-3-methyl-10-(4-methylpiperazin-1-yl)-7-oxo-3,7-dihydro-2H-[1,4]oxazino[2,3,4-ij]quinoline-6-carboxylate] | 0.104 ± 0.053 | 0.065 ± 0.016 | 0.052 ± 0.026 | 2.0 | 1.3 | 7.4 ± 0.44 | 5.7 ± 0.49 | 2.3 ± 0.27 | 10.4 ± 1.13 | 6.8 ± 0.56 | > 100 | – | – | at least 2 fold | at least 2 fold | at least 2 fold | – | – | –
9 | C[C@H]1COc2c(N3CCN(C)CC3)c(F)cc3c(=O)c(C(=O)NCc4cn(CCCCCCCC(=O)O)nn4)cn1c23 [Compound 7c, (S)-8-(4-((9-fluoro-3-methyl-10-(4-methylpiperazin-1-yl)-7-oxo-3,7-dihydro-2H-[1,4]oxazino[2,3,4-ij]quinoline-6-carboxamido)methyl)-1H-1,2,3-triazol-1-yl)octanoic acid] | 3.8 ± 0.46 | 6.9 ± 0.55 | 2.7 ± 0.36 | 1.4 | 2.6 | 11.9 ± 1.06 | 11.3 ± 1.24 | 12.7 ± 1.18 | 13.6 ± 1.29 | 10.6 ± 0.24 | > 100 | 203 to 205 | – | – | – | – | – | – | –
10 | O=C(CCCCCCC(=O)Nc1ccccc1)NO [SAHA, vorinostat, reference compound] | – | – | – | – | – | – | – | – | – | – | – | – | – | – | – | – | 2.9 ± 0.18 | considerable toxicity | some extent inherent toxicity
